Assays:
[1] = system: Podosphaera leucotricha; assay: Podosphaera test (apple)/protective; assay type: in vivo; settings: 240 h, application rate 100 g/ha, apple plants, protective spray, evaluation 10 days after inoculation, 100% = no infection, read-out: Efficacy in %
Protocol: (§1) [table] To produce a suitable preparation of active compound, 1 part by weight of active compound is mixed with the stated amounts of solvent and emulsifier, and the concentrate is diluted with water to the desired concentration. To test for protective activity, young plants are sprayed with the preparation of active compound at the stated application rate. After the spray coating has dried on, the plants are inoculated with an aqueous spore suspension of the apple mildew pathogen Podosphaera leucotricha. The plants are then placed in a greenhouse at about 23° C. and a relative atmospheric humidity of about 70%. Evaluation is carried out 10 days after the inoculation. 0% means an efficacy which corresponds to that of the control, whereas an efficacy of 100% means that no infection is observed.

[2] = logP determination by HPLC on reversed-phase column (EEC Directive 79/831); assay type: physicochemical; settings: reversed-phase HPLC column (C18), pH 2.3, reversed-phase C18, 43° C., 0.1% aqueous phosphoric acid/acetonitrile gradient
Protocol: The logP values given in the tables and preparation examples above are determined in accordance with EEC Directive 79/831 Annex V.48 by HPLC (High Performance Liquid Chromatography) on a reversed-phase column (C18). Temperature: 43° C. The determination is carried out in the acidic range at pH 2.3 using the mobile phases 0.1% aqueous phosphoric acid and acetonitrile; linear gradient from 10% acetonitrile to 90% acetonitrile. Calibration is carried out using unbranched […] (of 3 to 16 carbon atoms) with known logP values (determination of the logP values by the retention time using linear interpolation between two successive alkanones).

[3] = system: Sphaerotheca fuliginea; assay: Sphaerotheca test (cucumber)/protective; assay type: in vivo; settings: Podosphaera fuliginea, 168 h; application rate 100 g/ha; cucumber plants, protective spray; evaluation 7 days after inoculation; 100% = no infection; read-out: Efficacy in %
Protocol: as §1, with “of Sphaerotheca fuliginea.” for “of the apple mildew pathogen Podosphaera leucotricha.”, “out 7” for “out 10”

[4] = system: Venturia inaequalis; assay: Venturia test (apple)/protective; assay type: in vivo; settings: 240 h, application rate 100 g/ha, apple plants, protective spray, evaluation 10 days after inoculation, 100% = no infection, read-out: Efficacy in %
Protocol: as §1, with “conidia” for “spore”, “scab” for “mildew”, “Venturia inaequalis and then remain in an incubation cabin at about 20° C. and 100% relative atmospheric humidity for 1 day.” for “Podosphaera leucotricha.”, “21°” for “23°”, “90%.” for “70%.”

[5] = system: Pyrenophora teres; assay: Pyrenophora teres test (barley)/protective; assay type: in vivo; settings: application rate 500 g/ha; barley plants, protective spray
Protocol: [table] To produce a suitable preparation of active compound, 1 part by weight of active compound is mixed with the stated amounts of solvent and emulsifier, and the concentrate is diluted with water to the desired concentration. To test for protective activity, young plants are sprayed with the preparation of active compound at the stated application rate. After the spray coating has dried on, the plants are sprayed with a conidia suspension of Pyrenophora teres. The plants remain in an incubation cabin at 20° C. and 100% relative atmospheric humidity for 48 hours. The plants are then placed in a greenhouse at about 20° C. and a relative atmospheric humidity of about 80%.

[6] = system: Alternaria solani; assay: Alternaria test (tomato)/protective; assay type: in vivo; settings: application rate 750 g/ha; tomato plants, protective spray, inoculation 1 day after treatment; evaluation 7 days after inoculation; 100% = no infection
Protocol: [table] To produce a suitable p reparation of active compound, 1 part by weight of active compound is mixed with the stated amounts of solvent and emulsifier, and the concentrate is diluted with water to the desired concentration. To test for protective activity, young tomato plants are sprayed with the preparation of active compound at the stated application rate. 1 day after the treatment, the plants are inoculated with a spore suspension of Alternaria solani and are then kept at 100% relative atmospheric humidity and 20° C. for 24 h. The plants are then kept at 96% relative atmospheric humidity and a temperature of 20° C. Evaluation is carried out 7 days after the inoculation. 0% means an efficacy which corresponds to that of the control, whereas an efficacy of 100% means that no infection is observed.

Row | Compound | pest or weed control at 100 g/ha [1] [%] | chromatographic logP [2] | pest or weed control at 100 g/ha [3] [%] | pest or weed control at 100 g/ha [4] [%] | Efficacy in % [5] [%] | Efficacy in % [6] [%]
1 | O=C(Nc1ccccc1-c1ccc(Cl)c(Cl)c1)c1ccccc1C(F)(F)F [Compound 4] | 100 | 4.13 | 100 | 100 | 100 | –
2 | O=C(Nc1ccccc1-c1cccc(Cl)c1)c1ccccc1C(F)(F)F [Compound 7] | 100 | 3.86 | 100 | 100 | 90 | 94
